Source: patent publication US20130158059A1, “NILOTINIB SALTS AND CRYSTALLINE FORMS THEREOF” (TEVA PHARMACEUTICAL INDUSTRIES LTD., priority 2010, published 2013)
Counter-ions that a name gives are not always drawn.

Key:
[1] = Polymorphic stability on exposure to ethanol or methanol vapors; assay type: physicochemical; conditions: exposed to ethanol or methanol vapors, about RT, about 1 hour to about 24 hours
Source text: As discussed above, Nilotinib HBr form XI has advantageous properties. In particular, the crystalline Nilotinib HBr form XI of the present invention is polymorphically stable. […] This stability is an advantage for the production, storage and processing of pharmaceuticals comprising Nilotinib HBr.

[2] = Thermal polymorphic stability (heating of the crystalline form); assay type: physicochemical; conditions: heated up to 200° C.
Source text: As discussed above, Nilotinib L-tartrate Form IV has advantageous properties.

| Compound | polymorphic stability (conversion to other forms of Nilotinib HBr) [1] | thermal polymorphic stability (conversion to other forms) [2] |
| --- | --- | --- |
| Cc1cn(-c2cc(NC(=O)c3ccc(C)c(Nc4nccc(-c5cccnc5)n4)c3)cc(C(F)(F)F)c2)cn1 [Nilotinib HBr form XI, Nilotinib hydrobromide] | does not convert to other forms of Nilotinib HBr |  |
| Nilotinib L-tartrate [Nilotinib L-tartrate Form IV] |  | does not convert to other forms |
